US8420889B2, “Epicatechin glucosyltransferase” (priority 2008, dated 2013)

System: recombinant UGT72L1-MBP
Assay: UGT72L1 glucosyltransferase assay with potential acceptor substrates and 14C-UDP-Glucose
Method: All assays were performed in triplicate for 1 hour at 30° C. along with boiled enzyme controls.
For studying pH optima, the buffers were 179 mM MES pH 5.0-7.0, and 179 mM Tris-HCl pH 7.0-9.0. Potential acceptor substrates were (−)-epicatechin, (−)-epigallocatechin, (+)-catechin, (+)-gallocatechin, procyanidins B1 and B2, cyanidin, dihydroquercetin, quercetin, kaemferol, apigenin, luteolin, liquiritigenin, daidzein and genistein (Sigma-Aldrich, St Louis, Mo.).

[1] = UDP-glucose as sugar donor, 0.1 mM acceptor substrate, 1 hour at 30° C., pH 7.5

| Structure (SMILES) | activity for glucosylation (in words) [1] | also measured |
| --- | --- | --- |
| Oc1cc(O)c2c(c1)O[C@H](c1ccc(O)c(O)c1)[C@H](O)C2 [(−)-epicatechin] |  | Km (recombinant MBP-UGT72L1 fusion protein): 11.5 µM |
| Oc1cc(O)c2c(c1)O[C@H](c1cc(O)c(O)c(O)c1)[C@H](O)C2 [(−)-epigallocatechin] |  | activity for glucosylation, relative to the activity with epicatechin [1]: 27% |
| O=c1cc(-c2ccc(O)cc2)oc2cc(O)cc(O)c12 [apigenin] | not active |  |
| O=C1c2c(O)cc(O)cc2O[C@H](c2ccc(O)c(O)c2)[C@H]1O [dihydroquercetin] | not active |  |
| O=c1c(-c2ccc(O)cc2)coc2cc(O)cc(O)c12 [genistein] | not active |  |
| O=c1cc(-c2ccc(O)c(O)c2)oc2cc(O)cc(O)c12 [luteolin] | not active |  |
| O=c1c(O)c(-c2ccc(O)c(O)c2)oc2cc(O)cc(O)c12 [quercetin] | not active |  |
